Experiments:
HCV = experiment: Chronic HCV infection treated with IFN-β and ezetimibe, weekly RT-qPCR for 8 weeks; assay type: cell-based, Hepatitis C virus (HCV); conditions: alone, during 8 weeks
Source text: Intracellular RNA was collected from triplicate wells weekly for 8 weeks post-treatment and HCV RNA was quantified by RT-qPCR.

wild-type HCVcc^JFH-1 = experiment: Infection of Huh7 cells with wild-type HCVcc JFH-1, intracellular HCV RNA; assay type: cell-based, Hepatitis C virus (HCV); conditions: 30 μM, 48 hours post-infection
Procedure: Studies have shown that a G451R mutation in the viral envelope glycoprotein (E2) results in HCV virions of […] density and faster infection kinetics (thong, et al. (2006) J. Virol. 80:11082-11093). […] Thus, if ezetimibe was blocking HCV entry via an SR-B1 mediated mechanism, it would be expected that the mutant G451R virus would be less susceptible to the effects of ezetimibe. As a result, experiments were performed to assess the antiviral efficacy of ezetimibe against the SR-B1-independent HCVcc^G451R virus. Monolayers of Huh7 cells were inoculated with either wild-type HCVcc^JFH-1 or HCVcc^G451R at an MOI of 0.01 FFU/cell for 12 hours. Ezetimibe treatment at concentrations of 15 or 30 μM was initiated (and then continued) either 6 hours prior to infection, during the 12 hour incubation of the virus on the cells, or immediately following the 12 hour viral inoculation period. Ezetimibe at a concentration of 30 μM inhibited HCVcc^JFH-1 infection approximately 10-fold at 48 hours post-infection.

Dengue virus (DNV) = experiment: Dengue virus plaque formation; assay type: cell-based; conditions: 12.5 or 25 μM
Procedure: To ensure that the inhibition observed was not due to ezetimibe-induced changes in cell proliferation or cytotoxicity, cellular ATP was measured as a read-out of Huh7 cell viability and proliferation and cellular toxicity by adenylate kinase release following treatment with increasing doses of ezetimibe. […] Furthermore, to test the specificity of the observed HCV inhibition, the effect of ezetimibe on entry of another flavivirus, Dengue virus (DNV), was assessed.

HCVcc JFH-1 = experiment: Acute HCVcc infection of Huh7 cells, HCV RNA by RT-qPCR; assay type: cell-based, Hepatitis C virus (HCV)
Procedure: For experiments in growing cells, Huh7 cells were seeded 24 hours prior to use at 4×10^3 cells in each well of a 96-well plate (BD Biosciences, San Jose, Calif.). For experiments in non-growing cells, Huh7 cells were seeded in 96-well BIOCOAT culture plates (BD Biosciences) at a density of 8×10^3 cells/well in cDMEM. Upon reaching 90% confluence, media was replaced with 200 μl cDMEM supplemented with 1% (v/v) DMSO (Sigma), and cells were cultured for an additional 20 days, replacing medium every 2 days (Sainz, Jr. & Chisari (2006) J. Virol. 80:10253-7; Choi, et al. (2009) Xenobiotica 39:205-17). Cells were infected with HCVcc JFH-1 at an MOI of 1.0 or 0.1 FFU/cell for 12 hours. Cells were mock-treated or treated with increasing concentrations of ezetimibe 6 hours prior to infection (PRE), during the time of infection for 12 hours (CO), or immediately following infection for 60 hours (POST). For RT-qPCR analysis, total cellular RNA was extracted in 1× Nucleic Acid Purification Lysis Solution (Applied Biosystems, Foster City, Calif.) from triplicate wells at indicated times post infection. For HCV E2-positive foci assay analysis, medium was removed and cells were fixed with 4% paraformaldehyde (w/v) (Sigma) 72 hours post-infection and immunohistochemical staining for HCV E2 was performed as described herein.
Total cellular RNA was purified using an ABI PRISM™ 6100 Nucleic Acid PrepStation (Applied Biosystems), as per the manufacturer's instructions. One μg of purified RNA was used for cDNA synthesis using the TAQMAN reverse transcription reagents (Applied Biosystems), followed by SYBR green RT-qPCR using an Applied Biosystems 7300 real-time thermocycler (Applied Biosystems). […] HCV JFH-1 and human GAPDH RNA transcript levels were determined relative to a standard curve derived from serial dilutions of plasmid containing the JFH-1 HCV cDNA or the human GAPDH coding sequence, respectively. […]
Likewise dose-dependent and time-of-addition-dependent inhibition of HCV infection was observed when HCV RNA levels were quantified by RT-qPCR 24, 48 and 72 hours p.i.

JFH-1 = experiment: Infectivity of intracellular virus from naringenin-treated cells; assay type: cell-based, Hepatitis C virus (HCV); conditions: standard cell-free infection of naïve Huh7-1 cells
Procedure: To determine the nature of the intracellular JFH-1 virion particles which are able to spread from cell-to-cell, even in the absence of secretion, the buoyant density of the accumulated, intracellular particles from naringenin-treated cells were analyzed on iodixanol gradients. It was observed that the peak of RNA from these cells was shifted towards the heavier fractions consistent with the intracellular particles in naringenin-treated cells being less lipidated. Infectivity of the intracellular virus from naringenin-treated cells was reduced by more than 95% in a standard cell-free virus infection of naïve Huh7-1 cells.

Row | Compound | steady-state intracellular HCV RNA levels (HCV) | inhibition of HCVcc JFH-1 infection (wild-type HCVcc^JFH-1) | reduction in DNV plaque formation (Dengue virus (DNV)) | inhibition of HCV infection (HCV RNA levels) (HCVcc JFH-1; addition post-infection, 72 hours p.i.) | inhibition of HCV infection (HCV RNA levels) (HCVcc JFH-1; co-treatment) | protection of cells from subsequent infection, duration (HCVcc JFH-1; pre-treatment with 25 μM for 6 hours before infection) | reduction of infectivity of intracellular virus (JFH-1)
1 | O=C1[C@H](CC[C@H](O)c2ccc(F)cc2)[C@@H](c2ccc(O)cc2)N1c1ccc(F)cc1 [ezetimibe, 1-(4-fluorophenyl)-(3R)-[3-(4-fluorophenyl)-(3S)-hydroxypropyl]-(45)-(4-hydroxyphenyl)-2-azetidinone] | did not reduce HCV infection | approximately 10 fold | no significant reduction | ineffective | potently inhibited HCV infection | at least 48 hours | –
2 | O=C1C[C@@H](c2ccc(O)cc2)Oc2cc(O)cc(O)c21 [naringenin] | – | – | – | – | – | – | more than 95%

Reference: US9034863B2, “Compositions and methods for inhibiting entry of a hepatic virus” (The Board of Trustees of the University of Illinois, priority 2008, dated 2015)
